Test results taken from PMC11969438 (Inorganic Chemistry Frontiers, 2025).

Legend:
[1] = Reduction kinetics with 10 eq. L-ascorbic acid in phosphate buffer, UHPLC; assay type: physicochemical; settings: 10 eq. AA, PB pH 7.4, 20 °C, after 24 h
Description: PB (150 mM, pH 7.4) containing 1 mM platinum compound was incubated at 20 °C, with and without the addition of 10 eq. of AA. The reaction was monitored using a Thermo Scientific Dionex UltiMate 3000 UHPLC system with a Waters Acquity UPLC BEH C18 1.7 μm 3.0 × 50 mm column. Milli-Q water containing 0.1% formic acid and acetonitrile containing 0.1% formic acid were used as eluents. A gradient of 5–95% over 5 min was used with a flow of 0.6 mL min^−1. To evaluate the current state of the reaction, the peak area of the parental complex was used.

[2] = system: HCT116/OxR cells; test: MTT-based cell viability assay, 72 h; design: species or system human
Description: Cell models were seeded (2–2.5 × 10^3 cells per well) in 96-well plates. After 24 h of recovery, the compounds were applied at the concentrations indicated in triplicate. Cell viability was determined after 72 h of continuous drug incubation using an MTT-based cell viability assay (EZ4U, Biomedica, Vienna, Austria) according to the manufacturer's recommendations. Absorbance was measured at 450 nm (vs. 620 nm as reference) using a multimode microplate reader (Tecan Spark, Zurich, Switzerland). Half-maximal inhibitory concentrations (IC50 values) were derived via interpolation from dose–response curves, modeled with the four-parameter logistic (4PL) nonlinear regression model in GraphPad Prism (La Jolla, CA, USA) from at least three independent experiments.

[3] = system: IRF pathway (STING-dependent); test: IRF-inducible luciferase reporter in THP1-Dual reporter cell model; assay type: cell-based, human; settings: for IRF %EMAX of MSA-2: maximal response relative to MSA-2, highest tested dose 100 μM; for EC50: 24 h exposure, normalized to cell viability, oxaliplatin in combinations 5 μM
From the text: (§1) The THP1-Dual™ reporter cell model for simultaneously monitoring the activity of the IRF and NF-κB pathway contains an IRF-inducible luciferase reporter under the control of an ISG54 minimal promoter in conjunction with five interferon (IFN)-stimulated response elements, and an induced SEAP driven by an IFN-β minimal promoter fused to five copies of the NF-κB consensus transcriptional response element and three copies of the c-Rel binding site. The luciferase and SEAP reporter are measurable in the cell culture supernatant using QUANTI-Luc™ 4 Lucia/Gaussia (InvivoGen) and QUANTI-Blue™ (InvivoGen) solution, respectively. Cells were seeded at 1 × 10^5 cells per well in 96-well plates in RPMI-1640 medium, supplemented with 10% FCS, L-glutamine and Pen-Strep. After 2 h of recovery, the compounds were applied at the concentrations indicated in triplicate. The cell culture supernatant (SN) was collected after 24 h of drug incubation and secreted luciferase and SEAP reporter levels were measured according to the manufacturer's recommendations. In brief, for the detection of luciferase, 20 μL of SN were transferred into 96-well white opaque plates, and 30 μL of QUANTI-Luc™ reagent were added per well using an injector module in a multimode microplate reader (Tecan Spark, Zurich, Switzerland). Luminescence was recorded at a reading time of 0.1 second. For the detection of SEAP, 10 μL of SN were transferred to 96-well plates and 90 μL of QUANTI-Blue™ were added per well. Absorbance was measured at 620 nm. Half-maximal effective concentrations (EC50 values) were derived via interpolation from dose–response curves, modeled with the four-parameter logistic (4PL) nonlinear regression model in GraphPad Prism. For comparison, the maximal response rate of the prodrug was depicted in the percent of the maximal response rate achieved by SR-717 or MSA-2 (%EMAX) at the respective concentrations tested. Activatability, tested in co-incubation experiments with AA (50 μM), was expressed as the area under the curve (AUC) ratio of +AA vs. −AA-treated cells. The STING-dependency of the reporter induction was tested by co-administration of the STING inhibitor H-151 (10 μM), added to the cell culture medium 2 h before applying the investigated compounds. In addition to monitoring secreted reporter levels, the cell viability of the reporter cells was determined after 24 h of drug treatment by an MTT-based cell viability assay.

[4] = system: NF-κB pathway (STING-dependent); test: NF-κB-inducible SEAP reporter in THP1-Dual reporter cell model; assay type: cell-based, human; settings: for NF-κB %EMAX of MSA-2: maximal response relative to MSA-2; for EC50: 24 h exposure, normalized to cell viability, oxaliplatin in combinations 5 μM
From the text: as §1

[5] = Platinum distribution study in vivo by ICP-MS; design: species or system CT-26 tumor-bearing BALB/c mice; settings: i.v., 24 h after second dose; for serum platinum levels: two doses
Description: Tumor size was determined daily via manual caliper measurement. […] Animals were euthanized via cervical dislocation.
The generation and treatment of tumor-bearing mice are outlined in the section “In vivo syngraft experiments” described above. Mouse tissues were processed as described previously.[13] Briefly, serum was isolated from peripheral blood by centrifugation (900g, 10 min, 4 °C, twice). Tissues were digested in 20% nitric acid and hydrogen peroxide using an open-vessel graphite digestion system. The platinum concentration was determined by ICP-MS analysis; for details see “Intracellular platinum accumulation in vitro by ICP-MS”.

[6] = system: THP1-Dual cells; test: Intracellular platinum accumulation in vitro by ICP-MS; assay type: cell-based, human; settings: 3 h exposure; for cellular platinum accumulation: compared to oxaliplatin
Description: The THP1-Dual cell model was seeded at 1 × 10^6 cells per well in six-well plates. After 24 h of recovery, the compounds were applied at the concentrations indicated in triplicate. After 3 h of drug exposure, the cells were prepared as published previously.[13] […] The lysate was filled up to 8 mL with water. The platinum concentration was determined by ICP-MS analysis. Platinum and rhenium standards were derived from CPI International (Amsterdam, the Netherlands). The total platinum content was determined with an Agilent 7800 quadrupole-based ICP-MS instrument (Agilent Technologies, Tokyo, Japan) equipped with an Agilent SPS 4 autosampler (Agilent Technologies, Tokyo, Japan) and a MicroMist nebulizer at a sample uptake rate of approximately 0.2 mL min^−1. […] Argon was used as a plasma gas (15 L min^−1) and as a carrier gas (∼1.1 L min^−1). The dwell time was set to 0.1 s and the measurements were performed in 12 replicates with 100 sweeps. Rhenium served as an internal standard for platinum.

With `COCCOCCOCCOCCNC(=O)[O][Pt-2]12([O]C(=O)CCC(=O)c3cc4cc(OC)c(OC)cc4s3)([NH2+][C@@H]3CCCC[C@H]3[NH2+]1)[O]C(=O)C(=O)[O]2` [Ox-MSA-PEG-Ca, (OC-6-34)-[(1R,2R)-1,2-cyclohexanediamino]-oxalato-[4-(5,6-dimethoxybenzo[b]thiophen-2-yl)-4-oxobutylcarboxylato]-[3,6,9,12-tetraoxatridecan-1-amino]platinum(IV)] as the compound, how does the “complex remaining intact in presence of AA” value [1] read?
The value was “very well comparable to Ox-MSA-PEG-Es”.

What about the “resistance factor (IC50 ratio HCT116/OxR vs parental HCT116)” value [2] of the same compound?
Its value is 2.7 fold.

And the “IRF EC50 ratio fold MSA-2” value ([3]; 24 h)?
The value was 6.3 fold.

What about the “IRF %EMAX of MSA-2” value ([3]; 24 h) of the same compound?
Its value is 68%.

And the EC50 [3]?
Its EC50 is 57.8 µM.

And the “NF-κB EC50 ratio fold MSA-2” value ([4]; 24 h)?
Its value is 3.1 fold.

And the “NF-κB %EMAX of MSA-2” value ([4]; 24 h)?
The value was 24%.

What about the EC50 [4] of the same compound?
Its EC50 is 55.4 µM.

What about the “liver platinum level relative to tumor” value ([5]; two doses equimolar to 9 mg kg^−1 oxaliplatin) of the same compound?
Its value is 9.7 fold.

What about the serum platinum levels [5] of the same compound?
The serum platinum levels was “Low serum platinum levels”.

What does the source list for `COCCOCCOCCOCCC(=O)[O][Pt-2]12([O]C(=O)CCC(=O)c3cc4cc(OC)c(OC)cc4s3)([NH2+][C@@H]3CCCC[C@H]3[NH2+]1)[O]C(=O)C(=O)[O]2` [Ox-MSA-PEG-Es, (OC-6-44)-[(1R,2R)-1,2-cyclohexanediamino]-oxalato-[4-(5,6-dimethoxybenzo[b]thiophen-2-yl)-4-oxobutylcarboxylato]-[2,5,8,11-tetraoxatetradecanoato]platinum(IV)]?
complex remaining intact in presence of AA [1]: ~80%; resistance factor (IC50 ratio HCT116/OxR vs parental HCT116) [2]: > 3.1 fold; cellular platinum content vs oxaliplatin ([6]; 10 μM): significantly higher platinum content; intracellular platinum levels vs oxaliplatin ([6]; 50 μM, without statistical significance): lower intracellular platinum levels; cellular platinum accumulation [6]: did not show a comparable amount of platinum hyper-accumulation; IRF EC50 ratio fold MSA-2 ([3]; 24 h): 8.6 fold; IRF %EMAX of MSA-2 ([3]; 24 h): 24%; EC50 [3]: 78.8 µM; impact of reducing conditions on IRF-induced reporter signal (AUC ratio +AA/−AA) ([3]; AA 50 μM): significantly enhanced; NF-κB EC50 ratio fold MSA-2 ([4]; 24 h): > 5.7 fold; NF-κB %EMAX of MSA-2 ([4]; 24 h): 15%; EC50 [4]: > 100 µM

Which IC50 ([2]; without AA) does the source give for `O=C1[O][Pt]2([NH][C@@H]3CCCC[C@H]3[NH]2)[O]C1=O` [oxaliplatin, reference compound] here?
The IC50 was 27.5 µM.

And the cellular platinum accumulation [6]?
Its cellular platinum accumulation is “accumulated dose-dependently”.

What about the “activation of IRF signaling pathway” value ([3]; 24 h) of the same compound?
Its value is “did not induce observable activation”.

What about the “activation of NF-κB signaling pathway” value ([4]; 24 h) of the same compound?
Its value is “did not induce observable activation”.

And the serum platinum levels [5]?
The serum platinum levels was “Low serum platinum levels”.
